Test results as given in ChEMBL document CHEMBL4706583, “2-Anilinoquinoline based arylamides as broad spectrum anticancer agents with B-RAF/C-RAF kinase inhibitory effects: Design, synthesis, in vitro cell-based and oncogenic kinase assessments” (Eur J Med Chem, 2020).

Columns and labels:
[1] = tested on: Panel NCI-60 (60 carcinoma cell lines); assay: Growth inhibition of human Panel NCI-60 (60 carcinoma cell lines) cells at 10 uM measured after 48 hrs by SRB assay relative to control; assay type: functional; details: read-out: GI
[2] = tested on: CCRF-CEM; assay: Growth inhibition of human CCRF-CEM cells measured after 48 hrs by SRB assay; assay type: functional
[3] = tested on: HL-60(TB); assay: Growth inhibition of human HL-60(TB) cells measured after 48 hrs by SRB assay; assay type: functional
[4] = tested on: EKVX; assay: Growth inhibition of human EKVX cells measured after 48 hrs by SRB assay; assay type: functional
[5] = tested on: COLO 205; assay: Growth inhibition of human COLO 205 cells measured after 48 hrs by SRB assay; assay type: functional
[6] = tested on: U-251; assay: Growth inhibition of human U-251 cells measured after 48 hrs by SRB assay; assay type: functional
[7] = tested on: Malme-3M; assay: Growth inhibition of human Malme-3M cells measured after 48 hrs by SRB assay; assay type: functional
[8] = tested on: SK-MEL-2; assay: Growth inhibition of human SK-MEL-2 cells measured after 48 hrs by SRB assay; assay type: functional
[9] = tested on: SK-MEL-28; assay: Growth inhibition of human SK-MEL-28 cells measured after 48 hrs by SRB assay; assay type: functional
[10] = tested on: IGROV-1; assay: Growth inhibition of human IGROV-1 cells measured after 48 hrs by SRB assay; assay type: functional
[11] = tested on: OVCAR-5; assay: Growth inhibition of human OVCAR-5 cells measured after 48 hrs by SRB assay; assay type: functional
[12] = tested on: SK-OV-3; assay: Growth inhibition of human SK-OV-3 cells measured after 48 hrs by SRB assay; assay type: functional
[13] = tested on: MCF7; assay: Growth inhibition of human MCF7 cells measured after 48 hrs by SRB assay; assay type: functional
[14] = tested on: HCT-116; assay: Cell cycle arrest in human HCT-116 cells assessed as accumulation at sub-G1 phase at 2.5 uM measured after 48 hrs by propidium iodide staining based flow cytometry (reference value: 17%); assay type: functional
[15] = tested on: HCT-116; assay: Cell cycle arrest in human HCT-116 cells assessed as accumulation at G1/G0 phase at 1.25 uM measured after 48 hrs by propidium iodide staining based flow cytometry (reference value: 52.2%); assay type: functional
[16] = tested on: HCT-116; assay: Cell cycle arrest in human HCT-116 cells assessed as accumulation at G1/G0 phase at 2.5 uM measured after 48 hrs by propidium iodide staining based flow cytometry (reference value: 52.2%); assay type: functional
[17] = tested on: HCT-116; assay: Cell cycle arrest in human HCT-116 cells assessed as accumulation at G1/G0 phase at 5 uM measured after 48 hrs by propidium iodide staining based flow cytometry (reference value: 52.2%); assay type: functional
[18] = tested on: HCT-116; assay: Cell cycle arrest in human HCT-116 cells assessed as accumulation at S phase at 1.25 uM measured after 48 hrs by propidium iodide staining based flow cytometry (reference value: 10.4%); assay type: functional
[19] = tested on: HCT-116; assay: Cell cycle arrest in human HCT-116 cells assessed as accumulation at S phase at 5 uM measured after 48 hrs by propidium iodide staining based flow cytometry (reference value: 10.4%); assay type: functional
[20] = tested on: HCT-116; assay: Cell cycle arrest in human HCT-116 cells assessed as accumulation at G2/M phase at 1.25 uM measured after 48 hrs by propidium iodide staining based flow cytometry (reference value: 20.4%); assay type: functional
[21] = tested on: HCT-116; assay: Cell cycle arrest in human HCT-116 cells assessed as accumulation at G2/M phase at 2.5 uM measured after 48 hrs by propidium iodide staining based flow cytometry (reference value: 20.4%); assay type: functional
[22] = tested on: HCT-116; assay: Cell cycle arrest in human HCT-116 cells assessed as accumulation at G2/M phase at 5 uM measured after 48 hrs by propidium iodide staining based flow cytometry (reference value: 20.4%); assay type: functional
[23] = tested on: HCT-116; assay: Induction of apoptosis in human HCT-116 cells assessed as viable cells at 1.25 uM measured after 24 hrs by Annexin-V Alexa Fluor488/propidium iodide staining based flow cytometry (reference value: 88.1%); assay type: functional; details: read-out: Activity
[24] = tested on: HCT-116; assay: Induction of apoptosis in human HCT-116 cells assessed as late apoptotic cells at 2.5 uM measured after 24 hrs by Annexin-V Alexa Fluor488/propidium iodide staining based flow cytometry (reference value: 1%); assay type: functional
[25] = tested on: HCT-116; assay: Induction of apoptosis in human HCT-116 cells assessed as viable cells at 2.5 uM measured after 48 hrs by Annexin-V Alexa Fluor488/propidium iodide staining based flow cytometry (reference value: 82.3%); assay type: functional; details: read-out: Activity
[26] = tested on: Serine/threonine-protein kinase B-raf (Homo sapiens), P15056 [V600E]; assay: Inhibition of human BRAF V600E mutant at 10 uM using MEK1 (K97R) as substrate in presence of [gamma-33P]ATP by scintillation counting method relative to control
Sequence of Serine/threonine-protein kinase B-raf (Homo sapiens), P15056 [V600E] (P15056 whole entry V600E, the tested form may be a part): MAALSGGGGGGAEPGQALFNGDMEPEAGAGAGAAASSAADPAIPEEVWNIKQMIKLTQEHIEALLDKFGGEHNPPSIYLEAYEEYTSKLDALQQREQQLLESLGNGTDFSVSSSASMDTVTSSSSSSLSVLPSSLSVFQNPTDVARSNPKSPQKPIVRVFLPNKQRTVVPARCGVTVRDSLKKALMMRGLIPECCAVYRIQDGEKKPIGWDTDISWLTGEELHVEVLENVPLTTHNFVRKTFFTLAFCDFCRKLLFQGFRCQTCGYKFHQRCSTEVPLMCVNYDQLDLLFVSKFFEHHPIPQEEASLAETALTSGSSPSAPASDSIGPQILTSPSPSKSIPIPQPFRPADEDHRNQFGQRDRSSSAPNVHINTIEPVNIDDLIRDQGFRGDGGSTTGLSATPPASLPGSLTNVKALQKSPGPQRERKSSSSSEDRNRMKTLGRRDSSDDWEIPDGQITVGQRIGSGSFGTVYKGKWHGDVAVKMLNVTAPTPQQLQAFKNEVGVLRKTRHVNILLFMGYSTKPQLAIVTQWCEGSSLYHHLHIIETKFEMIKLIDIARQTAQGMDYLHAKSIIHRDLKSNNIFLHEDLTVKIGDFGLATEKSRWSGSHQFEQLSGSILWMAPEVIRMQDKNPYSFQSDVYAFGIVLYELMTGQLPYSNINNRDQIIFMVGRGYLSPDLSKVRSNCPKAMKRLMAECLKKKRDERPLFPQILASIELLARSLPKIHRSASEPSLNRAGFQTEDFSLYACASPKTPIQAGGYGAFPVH

[27] = target: Epithelial discoidin domain-containing receptor 1 (Homo sapiens, UniProt Q08345); assay: Inhibition of human DDR1 at 10 uM using KKSRGDYMTMQIG as substrate in presence of [gamma-33P]ATP by scintillation counting method relative to control
Sequence of Epithelial discoidin domain-containing receptor 1 (Q08345 whole entry, the tested form may be a part): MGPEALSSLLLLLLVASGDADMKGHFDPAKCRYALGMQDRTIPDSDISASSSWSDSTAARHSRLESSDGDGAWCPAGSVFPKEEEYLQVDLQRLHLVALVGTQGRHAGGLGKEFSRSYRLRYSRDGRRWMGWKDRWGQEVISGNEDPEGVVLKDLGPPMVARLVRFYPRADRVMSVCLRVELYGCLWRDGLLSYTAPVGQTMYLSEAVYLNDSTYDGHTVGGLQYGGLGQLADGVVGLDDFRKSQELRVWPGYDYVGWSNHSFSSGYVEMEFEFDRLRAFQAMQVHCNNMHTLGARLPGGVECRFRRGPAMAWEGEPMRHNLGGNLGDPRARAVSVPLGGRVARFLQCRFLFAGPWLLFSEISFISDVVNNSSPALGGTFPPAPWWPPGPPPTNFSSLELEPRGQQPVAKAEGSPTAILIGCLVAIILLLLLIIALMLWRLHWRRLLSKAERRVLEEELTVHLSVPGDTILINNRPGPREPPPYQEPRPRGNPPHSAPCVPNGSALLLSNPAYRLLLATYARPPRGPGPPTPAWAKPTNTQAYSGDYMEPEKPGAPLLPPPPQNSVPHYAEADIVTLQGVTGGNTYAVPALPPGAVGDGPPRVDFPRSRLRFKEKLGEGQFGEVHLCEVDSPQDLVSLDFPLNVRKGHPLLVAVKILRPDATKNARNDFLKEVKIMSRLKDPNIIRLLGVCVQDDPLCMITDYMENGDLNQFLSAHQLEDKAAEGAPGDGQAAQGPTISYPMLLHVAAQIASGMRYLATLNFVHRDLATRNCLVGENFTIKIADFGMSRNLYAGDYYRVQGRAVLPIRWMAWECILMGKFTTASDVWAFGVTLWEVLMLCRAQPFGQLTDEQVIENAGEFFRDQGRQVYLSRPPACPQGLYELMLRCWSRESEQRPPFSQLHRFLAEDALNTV

[28] = target: RAF proto-oncogene serine/threonine-protein kinase (Homo sapiens, UniProt P04049); assay: Inhibition of human CRAF at 10 uM using MEK1 (K97R) as substrate in presence of [gamma-33P]ATP by scintillation counting method relative to control
Sequence of RAF proto-oncogene serine/threonine-protein kinase (P04049 whole entry): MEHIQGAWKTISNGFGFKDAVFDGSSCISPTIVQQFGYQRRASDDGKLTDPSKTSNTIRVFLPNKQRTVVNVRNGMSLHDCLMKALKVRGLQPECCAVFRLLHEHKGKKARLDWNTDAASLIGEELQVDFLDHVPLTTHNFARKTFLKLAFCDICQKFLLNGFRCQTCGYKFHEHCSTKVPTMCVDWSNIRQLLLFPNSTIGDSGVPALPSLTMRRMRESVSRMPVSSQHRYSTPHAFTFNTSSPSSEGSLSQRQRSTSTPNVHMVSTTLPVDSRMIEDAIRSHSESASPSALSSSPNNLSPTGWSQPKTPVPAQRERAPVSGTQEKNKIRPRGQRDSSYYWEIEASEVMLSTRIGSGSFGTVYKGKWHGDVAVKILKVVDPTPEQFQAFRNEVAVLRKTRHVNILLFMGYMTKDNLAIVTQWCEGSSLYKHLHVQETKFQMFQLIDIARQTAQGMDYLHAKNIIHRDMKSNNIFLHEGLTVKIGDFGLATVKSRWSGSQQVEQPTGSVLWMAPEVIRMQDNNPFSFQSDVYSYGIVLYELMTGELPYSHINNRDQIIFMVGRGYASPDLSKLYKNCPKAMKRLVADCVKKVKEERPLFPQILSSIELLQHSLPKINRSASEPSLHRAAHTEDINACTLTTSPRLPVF

[29] = target: High affinity nerve growth factor receptor (Homo sapiens, UniProt P04629); assay: Inhibition of human TRKA at 10 uM using poly[Glu:Tyr] (4:1) as substrate in presence of [gamma-33P]ATP by scintillation counting method relative to control
Sequence of High affinity nerve growth factor receptor (P04629 33-796 limits assumed): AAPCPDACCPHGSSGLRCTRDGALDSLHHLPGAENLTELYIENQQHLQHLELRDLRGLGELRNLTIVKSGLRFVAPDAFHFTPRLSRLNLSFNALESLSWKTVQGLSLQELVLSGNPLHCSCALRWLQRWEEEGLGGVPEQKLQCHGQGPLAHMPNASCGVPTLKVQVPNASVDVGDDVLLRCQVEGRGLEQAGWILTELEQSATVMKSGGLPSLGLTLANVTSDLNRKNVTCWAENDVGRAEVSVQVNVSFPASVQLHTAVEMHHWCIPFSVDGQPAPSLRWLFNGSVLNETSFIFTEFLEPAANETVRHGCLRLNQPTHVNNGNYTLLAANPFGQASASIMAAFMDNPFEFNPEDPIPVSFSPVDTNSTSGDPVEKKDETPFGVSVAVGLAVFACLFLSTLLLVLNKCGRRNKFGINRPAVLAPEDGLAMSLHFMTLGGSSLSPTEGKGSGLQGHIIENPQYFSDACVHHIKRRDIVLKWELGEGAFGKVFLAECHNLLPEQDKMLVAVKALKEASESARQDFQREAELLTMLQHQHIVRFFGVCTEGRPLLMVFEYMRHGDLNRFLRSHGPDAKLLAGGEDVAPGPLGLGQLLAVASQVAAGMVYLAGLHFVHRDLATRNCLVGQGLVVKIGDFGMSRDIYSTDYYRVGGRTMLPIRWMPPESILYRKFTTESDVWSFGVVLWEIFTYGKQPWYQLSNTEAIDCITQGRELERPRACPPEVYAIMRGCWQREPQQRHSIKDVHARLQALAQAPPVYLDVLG

[30] = target: Discoidin domain-containing receptor 2 (Homo sapiens) (UniProt Q16832); assay: Inhibition of human DDR2 at 10 uM using KKSRGDYMTMQIG as substrate in presence of [gamma-33P]ATP by scintillation counting method relative to control
Sequence of Discoidin domain-containing receptor 2 (Homo sapiens) (Q16832 whole entry, the tested form may be a part): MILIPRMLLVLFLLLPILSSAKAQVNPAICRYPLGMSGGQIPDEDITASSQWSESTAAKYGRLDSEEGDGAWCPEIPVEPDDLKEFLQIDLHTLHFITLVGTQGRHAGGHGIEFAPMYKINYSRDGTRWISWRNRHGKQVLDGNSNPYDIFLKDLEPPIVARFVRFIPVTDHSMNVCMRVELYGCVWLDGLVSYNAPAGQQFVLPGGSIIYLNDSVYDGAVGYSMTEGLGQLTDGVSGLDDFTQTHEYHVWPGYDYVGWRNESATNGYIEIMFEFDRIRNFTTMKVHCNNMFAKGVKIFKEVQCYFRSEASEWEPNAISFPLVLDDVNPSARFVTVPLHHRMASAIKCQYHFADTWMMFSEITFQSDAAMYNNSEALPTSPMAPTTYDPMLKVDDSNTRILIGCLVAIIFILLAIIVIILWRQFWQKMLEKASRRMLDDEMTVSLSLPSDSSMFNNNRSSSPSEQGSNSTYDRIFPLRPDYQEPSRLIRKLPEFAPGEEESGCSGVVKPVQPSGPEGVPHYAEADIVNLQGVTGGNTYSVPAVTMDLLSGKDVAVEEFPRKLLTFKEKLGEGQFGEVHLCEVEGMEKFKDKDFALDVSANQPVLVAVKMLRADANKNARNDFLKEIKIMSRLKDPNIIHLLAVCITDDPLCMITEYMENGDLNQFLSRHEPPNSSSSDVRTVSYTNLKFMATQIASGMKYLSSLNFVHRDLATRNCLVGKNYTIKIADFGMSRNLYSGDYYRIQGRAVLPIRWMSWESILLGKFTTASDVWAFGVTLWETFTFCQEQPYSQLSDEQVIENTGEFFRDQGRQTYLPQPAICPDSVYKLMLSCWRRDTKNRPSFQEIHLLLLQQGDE

[31] = target: Macrophage colony-stimulating factor 1 receptor (Homo sapiens) (UniProt P07333); assay: Inhibition of human FMS at 10 uM using poly[Glu:Tyr] (4:1) as substrate in presence of [gamma-33P]ATP by scintillation counting method relative to control
Sequence of Macrophage colony-stimulating factor 1 receptor (Homo sapiens) (P07333 whole entry): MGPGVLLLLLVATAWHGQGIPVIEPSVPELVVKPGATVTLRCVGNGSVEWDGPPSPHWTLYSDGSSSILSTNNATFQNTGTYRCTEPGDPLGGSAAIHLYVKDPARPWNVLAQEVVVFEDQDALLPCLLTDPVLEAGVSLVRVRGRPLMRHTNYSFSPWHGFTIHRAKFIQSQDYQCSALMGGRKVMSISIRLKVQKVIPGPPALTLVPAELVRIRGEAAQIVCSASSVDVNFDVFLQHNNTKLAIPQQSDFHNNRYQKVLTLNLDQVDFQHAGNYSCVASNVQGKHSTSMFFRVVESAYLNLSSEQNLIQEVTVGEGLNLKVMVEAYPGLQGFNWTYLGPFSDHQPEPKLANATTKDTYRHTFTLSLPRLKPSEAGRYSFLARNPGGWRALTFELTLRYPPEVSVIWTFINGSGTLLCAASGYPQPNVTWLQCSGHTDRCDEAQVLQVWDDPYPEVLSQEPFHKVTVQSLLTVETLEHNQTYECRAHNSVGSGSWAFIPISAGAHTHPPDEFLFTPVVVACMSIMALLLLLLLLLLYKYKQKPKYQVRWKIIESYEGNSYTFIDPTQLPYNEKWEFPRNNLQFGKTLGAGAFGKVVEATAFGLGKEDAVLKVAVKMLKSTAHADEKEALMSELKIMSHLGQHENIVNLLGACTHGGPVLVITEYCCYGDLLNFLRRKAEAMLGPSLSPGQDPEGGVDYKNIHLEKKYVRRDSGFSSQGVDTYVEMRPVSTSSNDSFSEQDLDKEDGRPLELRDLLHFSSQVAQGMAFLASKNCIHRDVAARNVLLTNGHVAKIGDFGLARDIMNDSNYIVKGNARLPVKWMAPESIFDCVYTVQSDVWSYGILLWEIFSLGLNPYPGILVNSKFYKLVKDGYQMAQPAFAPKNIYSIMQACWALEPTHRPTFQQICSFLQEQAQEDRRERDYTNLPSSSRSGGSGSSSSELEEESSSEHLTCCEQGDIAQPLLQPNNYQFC

[32] = tested on: HCT-116; assay: Cell cycle arrest in human HCT-116 cells assessed as accumulation at G1/G0 phase at 1.25 uM measured after 24 hrs by propidium iodide staining based flow cytometry (reference value: 65%); assay type: functional
[33] = tested on: HCT-116; assay: Cell cycle arrest in human HCT-116 cells assessed as accumulation at G1/G0 phase at 2.5 uM measured after 24 hrs by propidium iodide staining based flow cytometry (reference value: 65%); assay type: functional
[34] = tested on: HCT-116; assay: Cell cycle arrest in human HCT-116 cells assessed as accumulation at S phase at 1.25 uM measured after 24 hrs by propidium iodide staining based flow cytometry (reference value: 7.2%); assay type: functional
[35] = tested on: HCT-116; assay: Cell cycle arrest in human HCT-116 cells assessed as accumulation at G2/M phase at 1.25 uM measured after 24 hrs by propidium iodide staining based flow cytometry (reference value: 19.2%); assay type: functional

| SMILES | inhibition of growth at 10 µM [1] [%] | GI50 [2] [nM] | LC50 [2] [nM] | TGI [2] [nM] | GI50 [3] [nM] | GI50 [4] [nM] | GI50 [5] [nM] | GI50 [6] [nM] | GI50 [7] [nM] | LC50 (concentration killing 50% of cells) [7] [nM] | TGI [7] [nM] | GI50 [8] [nM] | GI50 [9] [nM] | GI50 [10] [nM] | LC50 [10] [nM] | TGI [10] [nM] | GI50 [11] [nM] | GI50 [12] [nM] | GI50 [13] [nM] | LC50 [13] [nM] | also measured |
| --- | --- | --- | --- | --- | --- | --- | --- | --- | --- | --- | --- | --- | --- | --- | --- | --- | --- | --- | --- | --- | --- |
| CCN1CCN(c2cc(C(=O)Nc3cccc(Nc4ccc5c(OC)cccc5n4)c3)cc(C(F)(F)F)c2)CC1 | 95 | 758 | 8040 | 2060 | 3820 | 3070 | 654 | 1360 | 611 | 2880 | 1330 | 5300 | 846 | 924 | 20000 | 5230 | 2780 | 4600 | 679 | 17600 | TGI [13]: 2280 nM; Activity [14]: 20.9%; Activity [15]: 54.7%; Activity [16]: 57.1%; Activity [17]: 64.1%; Activity [18]: 8.8%; Activity [19]: 7.4%; Activity [20]: 15.5%; Activity [21]: 12.9%; Activity [22]: 14.4%; viability at 1.25 µM [23]: 86.5%; Activity [24]: 0.9%; viability at 2.5 µM [25]: 78.8%; inhibition [26]: 94.4%; inhibition [27]: 94.5%; inhibition [28]: 94.4%; inhibition [29]: 88%; inhibition [30]: 67.5%; inhibition [31]: 60.7% |
| COc1cccc2nc(Nc3cccc(NC(=O)c4ccc(N5CCN(C)CC5)c(C(F)(F)F)c4)c3)ccc12 | 86.8 | 1400 | > 50000 | > 50000 | 1070 | 1830 | 909 | 885 | 816 | 3200 | 1620 | 1360 | 896 | 1250 | 25600 | 4240 | 1530 | 1730 | 851 | 4250 | TGI [13]: 1900 nM; Activity [32]: 66.6%; Activity [33]: 69.7%; Activity [34]: 8.2%; Activity [35]: 15.6%; viability at 1.25 µM [23]: 82.7%; Activity [24]: 4.1%; viability at 2.5 µM [25]: 79.5% |
